Measurements from US7951811B2, “Pyrrolo[2,3-D]pyrimidine derivatives substituted with a cyclic amino group” (Taisho Pharmaceutical Co., Ltd., priority 2004, dated 2011).

Each compound was assayed against T1, δ receptor (delta opioid receptor) (Rattus norvegicus, UniProt P33533) (assay: δ receptor binding test (3H-DPDPE displacement)). Details: rat brain membranes, 3H-DPDPE 1.5 nM, 25° C., 70 minutes; read-out: IC50 (concentration at which binding of 3H-DPDPE is inhibited by 50%).
T1 construct: Rat Brain Membranes were Used as a Receptor Preparation; from tissue; host or cells: rat brain membranes
T1 sequence (P33533 whole entry): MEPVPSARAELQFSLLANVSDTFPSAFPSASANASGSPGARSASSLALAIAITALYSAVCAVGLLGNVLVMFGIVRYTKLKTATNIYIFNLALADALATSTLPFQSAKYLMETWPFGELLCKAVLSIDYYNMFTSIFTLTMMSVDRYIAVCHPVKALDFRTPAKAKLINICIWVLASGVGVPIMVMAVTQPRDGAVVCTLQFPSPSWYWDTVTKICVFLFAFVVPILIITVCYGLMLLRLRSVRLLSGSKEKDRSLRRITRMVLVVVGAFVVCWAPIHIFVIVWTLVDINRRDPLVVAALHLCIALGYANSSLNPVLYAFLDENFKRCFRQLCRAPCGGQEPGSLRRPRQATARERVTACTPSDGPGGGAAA
Method: Rat Brain Membranes were Used as a Receptor Preparation.
^3H-DPDPE ([D-Pen^2,D-Pen^5]-Enkephalin) was used as ^3H-labeled ligand.
Binding reaction using the ^3H-labeled ligand was carried out by the following method.
Preparation of Receptor Membranes:
Rat brain was homogenized in 50 mM Tris-HCl buffer (pH 7.4) containing 10 mM MgCl2 and 1 mM EDTA, and centrifuged at 48,000×g for 20 min, and the precipitate was washed once with Tris-HCl buffer. The washed precipitate was suspended in 50 mM Tris-HCl buffer (pH 7.4) containing 10 mM MgCl2 and 1 mM EDTA, to obtain a membrane preparation.
Delta Opioid Receptor Binding Test:
The membrane preparation (1 mg protein/ml), H-DPDPE (1.5 nM) and a test drug were reacted at 25° C. for 70 minutes. After completion of the reaction, the reaction mixture was filtered by suction through a glass filter (GF/B) treated with 0.3% polyethylene imine, and the glass filter was washed three times with 50 mM Tris-HCl buffer (pH 7.4) containing 10 mM MgCl2 and 1 mM EDTA. After the washing, scintillation cocktail was added to the filters, and the radioactivity of the filter was measured in a liquid scintillation counter.
The amount of ^3H-DPDPE bound when the reaction was carried out in the presence of 10 μM naltrindole was taken as the degree of nonspecific binding of ^3H-DPDPE, and the difference between the total degree of ^3H-DPDPE binding and the degree of nonspecific ^3H-DPDPE binding was taken as the degree of specific ^3H-DPDPE binding. An inhibition curve was obtained by reacting a definite concentration (1.5 nM) of ^3H-DPDPE with various concentrations of each test drug under the conditions described above. A concentration of the test drug at which binding of ^3H-DPDPE is inhibited by 50% (IC50) was determined from the inhibition curve.

Row | IC50 [µM] | SMILES
1 | ≤ 0.5 | Cc1cc(N2CCC(CC(=O)O)CC2)c2c(C)c(C)n(-c3c(C)cc(Br)cc3C)c2n1 [Compound 1-003, {1-[1-(4-bromo-2,6-dimethyl-phenyl)-2,3,6-trimethyl-1H-pyrrolo[2,3-b]pyridin-4-yl]-piperidin-4-yl}-acetic acid]
2 | ≤ 0.5 | Cc1cc(N2CCC(CS(=O)(=O)O)CC2)c2c(C)cn(-c3c(C)cc(Br)cc3C)c2n1 [Compound 1-047, {1-[1-(4-bromo-2,6-dimethyl-phenyl)-3,6-dimethyl-1H-pyrrolo[2,3-b]pyridin-4-yl]-piperidin-4-yl}-methanesulfonic acid]
3 | ≤ 0.5 | Cc1cc(N2CCC(CC(=O)O)CC2)c2c(C)cn(-c3c(C)cc(Br)cc3C)c2n1 [Compound 1-004, {1-[1-(4-bromo-2,6-dimethyl-phenyl)-3,6-dimethyl-1H-pyrrolo[2,3-b]pyridin-4-yl]-piperidin-4-yl}-acetic acid]
4 | ≤ 0.5 | Cc1cc(N2CCC(CC(=O)O)CC2)c2c(C)c(C)n(-c3c(C)cc(Cl)cc3C)c2n1 [Compound 1-005, {1-[1-(4-chloro-2,6-dimethyl-phenyl)-2,3,6-trimethyl-1H-pyrrolo[2,3-b]pyridin-4-yl]-piperidin-4-yl}-acetic acid]
5 | ≤ 0.5 | Cc1cc(N2CCC(CCC(=O)O)CC2)c2c(C)cn(-c3c(C)cc(Br)cc3C)c2n1 [Compound 1-020, 3-{1-[1-(4-bromo-2,6-dimethyl-phenyl)-3,6-dimethyl-1H-pyrrolo[2,3-b]pyridin-4-yl]-piperidin-4-yl}-propionic acid]
6 | ≤ 0.5 | Cc1cc(N2CCC(CCC(=O)O)CC2)c2c(C)c(C)n(-c3c(C)cc(Br)cc3C)c2n1 [Compound 1-019, 3-{1-[1-(4-bromo-2,6-dimethyl-phenyl)-2,3,6-trimethyl-1H-pyrrolo[2,3-b]pyridin-4-yl]-piperidin-4-yl}-propionic acid]
7 | ≤ 0.5 | Cc1nc(N2CCC(CC(=O)O)CC2)c2c(C)c(C)n(-c3c(C)cc(Br)cc3C)c2n1 [Compound 1-001, {1-[7-(4-bromo-2,6-dimethyl-phenyl)-2,5,6-trimethyl-7H-pyrrolo[2,3-d]pyrimidin-4-yl]-piperidin-4-yl}-acetic acid]
8 | ≤ 0.5 | Cc1nc(N2CCC(CC(=O)O)CC2)c2c(C)cn(-c3c(C)cc(Br)cc3C)c2n1 [Compound 1-002, {1-[7-(4-bromo-2,6-dimethyl-phenyl)-2,5-dimethyl-7H-pyrrolo[2,3-d]pyrimidin-4-yl]-piperidin-4-yl}-acetic acid]
9 | ≤ 0.5 | Cc1cc(N2CCC(CCC(=O)O)CC2)c2c(C)c(C)n(-c3c(C)cc(Cl)cc3C)c2n1 [Compound 1-021, 3-{1-[1-(4-chloro-2,6-dimethyl-phenyl)-2,3,6-trimethyl-1H-pyrrolo[2,3-b]pyridin-4-yl]-piperidin-4-yl}-propionic acid]
10 | ≤ 0.5 | Cc1cc(N2CCC(CCC(=O)O)CC2)c2c(C)cn(-c3c(Cl)cc(Br)cc3Cl)c2n1 [Compound 1-025, 3-{1-[1-(4-bromo-2,6-dichloro-phenyl)-3,6-dimethyl-1H-pyrrolo[2,3-b]pyridin-4-yl]-piperidin-4-yl}-propionic acid]
11 | ≤ 0.5 | Cc1cc(N2CCC(CCCC(=O)O)CC2)c2c(C)c(C)n(-c3c(C)cc(Br)cc3C)c2n1 [Compound 1-032, 4-{1-[1-(4-bromo-2,6-dimethyl-phenyl)-2,3,6-trimethyl-1H-pyrrolo[2,3-b]pyridin-4-yl]-piperidin-4-yl}-butyric acid]
12 | ≤ 0.5 | Cc1cc(N2CCC(CC(=O)O)CC2)c2c(C)cn(-c3c(C)cc(Cl)cc3C)c2n1 [Compound 1-006, {1-[1-(4-chloro-2,6-dimethyl-phenyl)-3,6-dimethyl-1H-pyrrolo[2,3-b]pyridin-4-yl]-piperidin-4-yl}-acetic acid]
13 | ≤ 0.5 | Cc1cc(N2CCC(CC(=O)O)CC2)c2c(C)cn(-c3c(Br)cc(Cl)cc3Br)c2n1 [Compound 1-012, {1-[1-(2,6-dibromo-4-chloro-phenyl)-3,6-dimethyl-1H-pyrrolo[2,3-b]pyridin-4-yl]-piperidin-4-yl}-acetic acid]
14 | ≤ 0.5 | Cc1cc(N2CCC(CCC(=O)O)CC2)c2c(C)cn(-c3c(C)cc(Cl)cc3C)c2n1 [Compound 1-022, 3-{1-[1-(4-chloro-2,6-dimethyl-phenyl)-3,6-dimethyl-1H-pyrrolo[2,3-b]pyridin-4-yl]-piperidin-4-yl}-propionic acid]
15 | ≤ 0.5 | Cc1cc(N2CCC(CCC(=O)O)CC2)c2c(C)cn(-c3c(Br)cc(Cl)cc3Br)c2n1 [Compound 1-027, 3-{1-[1-(2,6-dibromo-4-chloro-phenyl)-3,6-dimethyl-1H-pyrrolo[2,3-b]pyridin-4-yl]-piperidin-4-yl}-propionic acid]
16 | ≤ 0.5 | Cc1cc(N2CCC(CCS(=O)(=O)O)CC2)c2c(C)cn(-c3c(C)cc(Br)cc3C)c2n1 [Compound 1-048, 2-{1-[1-(4-bromo-2,6-dimethyl-phenyl)-3,6-dimethyl-1H-pyrrolo[2,3-b]pyridin-4-yl]-piperidin-4-yl}-ethanesulfonic acid]
17 | ≤ 0.5 | Cc1nc(N2CCC(CCC(=O)O)CC2)c2c(C)cn(-c3c(C)cc(Br)cc3C)c2n1 [Compound 1-018, 3-{1-[7-(4-bromo-2,6-dimethyl-phenyl)-2,5-dimethyl-7H-pyrrolo[2,3-d]pyrimidin-4-yl]-piperidin-4-yl}-propionic acid]

Row | SMILES | IC50 [µM]
18 | Cc1cc(N2CCC(CC(=O)O)CC2)c2c(C)cn(-c3ccc(Br)cc3Br)c2n1 [Compound 1-016, {1-[1-(2,4-dibromo-phenyl)-3,6-dimethyl-1H-pyrrolo[2,3-b]pyridin-4-yl]-piperidin-4-yl}-acetic acid] | ≤ 0.5
19 | Cc1cc(N2CCC(CCC(=O)O)CC2)c2c(C)cn(-c3c(Cl)cc(Cl)cc3Cl)c2n1 [Compound 1-026, 3-{1-[3,6-dimethyl-1-(2,4,6-trichloro-phenyl)-1H-pyrrolo[2,3-b]pyridin-4-yl]piperidin-4-yl}-propionic acid] | ≤ 0.5
20 | Cc1cc(N2CCC(CP(=O)(O)O)CC2)c2c(C)cn(-c3c(C)cc(Br)cc3C)c2n1 [Compound 1-045, {1-[1-(4-bromo-2,6-dimethyl-phenyl)-3,6-dimethyl-1H-pyrrolo[2,3-b]pyridin-4-yl]-piperidin-4-ylmethyl}-phosphonic acid] | ≤ 0.5
21 | Cc1cc(N2CCC(CC(=O)O)CC2)c2c(C)cn(-c3c(Cl)cc(Cl)cc3Cl)c2n1 [Compound 1-011, {1-[3,6-dimethyl-1-(2,4,6-trichloro-phenyl)-1H-pyrrolo[2,3-b]pyridin-4-yl]-piperidin-4-yl}-acetic acid] | ≤ 0.5
